# Experimental data as given in US12377076B2, “Compounds for treating lymphoma or a T-cell malignant disease” (Purdue Pharma L.P., priority 2018, dated 2025).
# “And” between values parts separate entries of the source, which are not always exact repeats. Identical values can stand only once. Like-named read-outs stand apart in the source and are kept apart here.
# Tests used:
# Type in all cases: in vivo, human
# patients with lymphoma = assay: Tumour assessment: response to treatment, patients with lymphoma
# Text: (§1) Response to treatment included evaluation of overall response rate (patients with a CR plus patients with a PR), clinical benefit (CB) rate (patients with CR plus patients with PR plus patients with stable disease (SD)), progression free survival, and overall survival according to the relevant response criteria.
# patients with MM = assay: Tumour assessment: response to treatment, patients with multiple myeloma; details: 19 patients with MM
# Text: as §1
# lymphocytes = assay: PK/PD safety modelling: dose-nadir relationship of blood cell counts, lymphocytes; details: (% CV) in table
# Text: (§2) The obtained exposure parameters (Cmax and AUC) and PK profiles from individual patients and the respective haematological laboratory data were collected over the treatment duration and analysed regarding the relationship to peripheral blood cell counts (lymphocytes, neutrophils, platelets).
# (§3) The nadir was defined as the lowest blood cell count observed after the first administration. The nadir was extracted irrespective of the treatment duration, thus, the analysis data set included patients who received only one dose and patients who received multiple treatment cycles with tinostamustine. The baseline blood cell count, which was the count before the first administration, was included in the analysis as the cell count at dose, Cmax or AUC equal to 0. Thus, it was assumed that the baseline blood cell count was the effect level without treatment with tinostamustine. With an exploratory analysis all observations each predictor-nadir relationship was fitted with a least-squares method in R. The dose-nadir relationship was further investigated with a non-linear mixed effects approach. The advantage of the non-linear mixed effects approach compared to the exploratory analysis was that different external and patient factors could be investigated at the same time and the between patient variability can be described. […]
# [1] = PK assessment: plasma tinostamustine and metabolites M2 and M8, non-compartmental analysis and population PK model; details: for AUC / Cmax / Tmax: day one, Mean (SD)
# Experimental: Plasma samples were collected to determine the concentrations of tinostamustine and its metabolites (labelled M2 and M8) by a method fully validated according to the relevant guidelines. The PK profiles of tinostamustine in plasma were assessed in each patient in the escalation stage of the study, in cycle 1 only.
# Patients of all cohorts and over all dose levels were sampled according to the following schedule: 0.5 hours prior to dose administration, and at 15, 30 and 45 minutes and 1, 1.25, 1.50, 2, 3, 8, 24, 48 and 72 hours from the start of tinostamustine infusion. Plasma samples were collected according to the Laboratory Manual for the determination of tinostamustine and metabolites M2 and M8 concentrations using a method fully validated according to the relevant guidelines.
# A compartmental population PK analysis of tinostamustine was conducted to characterize its concentration-time profiles and its dependency on patient factors. For the analysis, the 24 hours plasma concentrations of tinostamustine at day one from 36 patients was used from whom the data was available. The concentration-time profiles were best described with a two-compartmental model with first order clearance from the central compartment.
# patients with HL = assay: Tumour assessment: response to treatment, patients with HL
# Text: as §1
# neutrophils = assay: PK/PD safety modelling: dose-nadir relationship of blood cell counts, neutrophils; details: (% CV) in table
# Text: as §2, §3
# [2] = human, plasma, intravenous, 20 mg/m^2, 20 mg/m^2, infusion 60 minutes
# [3] = human, plasma, intravenous, 40 mg/m^2, 40 mg/m^2, infusion 60 minutes
# [4] = human, plasma, intravenous, 60 mg/m^2, 60 mg/m^2, infusion 30 minutes
# [5] = human, plasma, intravenous, 60 mg/m^2, 60 mg/m^2, infusion 60 minutes
# [6] = human, plasma, intravenous, 80 mg/m^2, 80 mg/m^2, infusion 45 minutes
# [7] = human, plasma, intravenous, 80 mg/m^2, 80 mg/m^2, infusion 60 minutes
# [8] = human, plasma, intravenous, 100 mg/m^2, 100 mg/m^2, infusion 60 minutes
# [9] = human, plasma, intravenous, 120 mg/m^2, 120 mg/m^2, infusion 60 minutes
structure (smiles),measurement,setting,value
Cn1c(CCCCCCC(=O)NO)nc2cc(N(CCCl)CCCl)ccc21 [tinostamustine],CBR,patients with lymphoma; 27 patients with lymphoma,62%
same,ORR,patients with lymphoma; 27 patients with lymphoma,40%
same,best response CR,patients with lymphoma; 27 patients with lymphoma,11%
same,best response PR,patients with lymphoma; 27 patients with lymphoma,30%
same,best response SD,patients with lymphoma; 27 patients with lymphoma,22%
same,best response of PD,patients with lymphoma; 27 patients with lymphoma,37%
same,ORR and CBR,patients with lymphoma; LYM60 mg/m^2/30 min cohort,100%
same,CBR,patients with MM,42%
same,ORR,patients with MM,11%
same,best response CR,patients with MM,0 patients
same,best response PR,patients with MM,11%
same,best response SD,patients with MM,31%
same,best response of PD,patients with MM,47%
same,EC50 (dose required to reduce the cell count by 50%),lymphocytes,28.3 mg/m^2 and 28.3 (40%) mg/m^2
same,dose linearity of PK,[1]; dose range 20-120 mg/m^2 over 60 minutes infusion time,linear
same,dose linearity of PK,"[1]; dose range 20 to 120 mg/m^2, infusion times of 30 to 60 minutes",dose-linear
same,AUC,[1]; [2],193 ng·h/mL
same,Cmax,[1]; [2],241 ng/mL
same,Tmax,[1]; [2],48 min
same,AUC,[1]; [3],932 ng·h/mL
same,Cmax,[1]; [3],1160 ng/mL
same,Tmax,[1]; [3],24 min
same,AUC,[1]; [4],627 ng·h/mL
same,Cmax,[1]; [4],1720 ng/mL
same,Tmax,[1]; [4],18 min
same,AUC,[1]; [5],592 ng·h/mL
same,Cmax,[1]; [5],640 ng/mL
same,Tmax,[1]; [5],60 min
same,AUC,[1]; [6],794 ng·h/mL
same,Cmax,[1]; [6],1280 ng/mL
same,Tmax,[1]; [6],24 min
same,AUC,[1]; [7],902 ng·h/mL
same,Cmax,[1]; [7],1060 ng/mL
same,Tmax,[1]; [7],48 min
same,AUC,[1]; [8],1660 ng·h/mL
same,Cmax,[1]; [8],1960 ng/mL
same,Tmax,[1]; [8],42 min
same,AUC,[1]; [9],1640 ng·h/mL
same,Cmax,[1]; [9],1770 ng/mL
same,Tmax,[1]; [9],48 min
same,half-life,"[1]; human, plasma, intravenous, population PK, two-compartmental model, 36 patients, read-out: B half-life (converted)",216 min
same,Vd,"[1]; human, plasma, intravenous, population PK, two-compartmental model, 36 patients, read-out: Central volume of distribution",20.6 L
same,half-life,"[1]; human, plasma, intravenous, population PK, two-compartmental model, 36 patients, read-out: α half-life",27 min
same,Peripheral volume of distribution,"[1]; population PK, two-compartmental model, 36 patients",11.5 L
same,time to maximum concentrations,[1]; shorter infusions,around 30 minutes
same,response,patients with HL; 1 patient with refractory HL treated with 120 m/m^2 over 6 cycles,achieved a CR
same,patients having a response from SD to CR,patients with HL; 10 patients with HL,70%
same,EC50 (dose required to reduce the cell count by 50%),neutrophils,49.1 mg/m^2 and 49.1 (70%) mg/m^2
